For three compounds, remaining binding results are on record in article PMC6437697 (Journal of Medicinal Chemistry, 2019).

Common to all, as to test: KINOMEscan
Holding throughout (format): binding
Conditions in all cases: read-out: % control activity remaining

Test [1] has as its target T1, ABL1(Y253F)-phosphorylated (Homo sapiens, UniProt P00519, Y253F).
T1 construct: purchased Eurofins DiscoverX KINOMEscan

For a further test, the target named is T2, AKT2 (Homo sapiens, UniProt P31751).
T2 construct: purchased Eurofins DiscoverX KINOMEscan

The next test has as its target T3, CAMK2B (Homo sapiens, UniProt Q13554).
T3 construct: purchased Eurofins DiscoverX KINOMEscan

In the next test the target is T4, EPHA4 (Homo sapiens, UniProt P54764).
T4 construct: purchased Eurofins DiscoverX KINOMEscan

The target in another test is T5, EPHB4 (Homo sapiens, UniProt P54760).
T5 construct: purchased Eurofins DiscoverX KINOMEscan
T5 sequence (P54760 16-987): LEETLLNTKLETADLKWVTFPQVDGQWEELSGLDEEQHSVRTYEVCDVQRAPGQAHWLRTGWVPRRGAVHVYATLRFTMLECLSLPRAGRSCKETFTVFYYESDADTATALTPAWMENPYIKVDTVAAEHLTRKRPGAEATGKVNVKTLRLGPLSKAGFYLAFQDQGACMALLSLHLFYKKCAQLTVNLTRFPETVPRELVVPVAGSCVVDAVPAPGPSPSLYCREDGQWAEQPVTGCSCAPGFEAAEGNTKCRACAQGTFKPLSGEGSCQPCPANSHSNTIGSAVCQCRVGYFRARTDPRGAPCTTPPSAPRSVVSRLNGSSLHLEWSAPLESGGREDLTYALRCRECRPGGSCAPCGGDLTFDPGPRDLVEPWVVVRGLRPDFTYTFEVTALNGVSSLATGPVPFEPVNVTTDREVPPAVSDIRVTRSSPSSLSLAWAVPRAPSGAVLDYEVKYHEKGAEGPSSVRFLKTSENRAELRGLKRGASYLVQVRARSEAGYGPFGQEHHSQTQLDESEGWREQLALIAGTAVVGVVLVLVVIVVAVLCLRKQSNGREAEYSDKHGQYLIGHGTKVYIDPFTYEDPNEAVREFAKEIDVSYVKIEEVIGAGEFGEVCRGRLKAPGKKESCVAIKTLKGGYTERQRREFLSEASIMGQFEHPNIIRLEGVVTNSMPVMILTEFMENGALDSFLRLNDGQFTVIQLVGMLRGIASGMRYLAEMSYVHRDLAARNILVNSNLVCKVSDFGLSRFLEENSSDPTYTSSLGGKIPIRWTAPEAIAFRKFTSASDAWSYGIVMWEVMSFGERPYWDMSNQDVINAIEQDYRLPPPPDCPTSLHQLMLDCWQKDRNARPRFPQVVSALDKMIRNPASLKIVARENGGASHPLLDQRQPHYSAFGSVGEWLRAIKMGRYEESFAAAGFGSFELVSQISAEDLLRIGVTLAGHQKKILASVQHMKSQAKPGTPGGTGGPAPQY

For a further test, the target named is T6, MAPKAPK5 (Homo sapiens, UniProt Q8IW41).
T6 construct: purchased Eurofins DiscoverX KINOMEscan
T6 sequence (Q8IW41 1-473): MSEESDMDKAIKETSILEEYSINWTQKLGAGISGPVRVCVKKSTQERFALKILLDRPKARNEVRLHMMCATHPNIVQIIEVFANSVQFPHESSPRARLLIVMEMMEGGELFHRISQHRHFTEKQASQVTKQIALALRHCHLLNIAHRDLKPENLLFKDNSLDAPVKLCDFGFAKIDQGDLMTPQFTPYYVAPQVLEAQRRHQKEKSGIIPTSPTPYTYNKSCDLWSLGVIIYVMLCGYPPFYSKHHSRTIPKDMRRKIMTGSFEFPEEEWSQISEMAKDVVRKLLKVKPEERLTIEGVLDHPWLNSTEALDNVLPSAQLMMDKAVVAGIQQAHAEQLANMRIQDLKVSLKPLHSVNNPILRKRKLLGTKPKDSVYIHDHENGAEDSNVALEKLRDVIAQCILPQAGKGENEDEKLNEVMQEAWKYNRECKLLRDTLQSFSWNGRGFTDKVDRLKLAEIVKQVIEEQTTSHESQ

A further test concerns the target T7, MYLK2 (Homo sapiens, UniProt Q9H1R3).
T7 construct: purchased Eurofins DiscoverX KINOMEscan

The target in a further test is T8, PRKD1 (Homo sapiens, UniProt Q15139).
T8 construct: purchased Eurofins DiscoverX KINOMEscan
T8 sequence (Q15139 1-912): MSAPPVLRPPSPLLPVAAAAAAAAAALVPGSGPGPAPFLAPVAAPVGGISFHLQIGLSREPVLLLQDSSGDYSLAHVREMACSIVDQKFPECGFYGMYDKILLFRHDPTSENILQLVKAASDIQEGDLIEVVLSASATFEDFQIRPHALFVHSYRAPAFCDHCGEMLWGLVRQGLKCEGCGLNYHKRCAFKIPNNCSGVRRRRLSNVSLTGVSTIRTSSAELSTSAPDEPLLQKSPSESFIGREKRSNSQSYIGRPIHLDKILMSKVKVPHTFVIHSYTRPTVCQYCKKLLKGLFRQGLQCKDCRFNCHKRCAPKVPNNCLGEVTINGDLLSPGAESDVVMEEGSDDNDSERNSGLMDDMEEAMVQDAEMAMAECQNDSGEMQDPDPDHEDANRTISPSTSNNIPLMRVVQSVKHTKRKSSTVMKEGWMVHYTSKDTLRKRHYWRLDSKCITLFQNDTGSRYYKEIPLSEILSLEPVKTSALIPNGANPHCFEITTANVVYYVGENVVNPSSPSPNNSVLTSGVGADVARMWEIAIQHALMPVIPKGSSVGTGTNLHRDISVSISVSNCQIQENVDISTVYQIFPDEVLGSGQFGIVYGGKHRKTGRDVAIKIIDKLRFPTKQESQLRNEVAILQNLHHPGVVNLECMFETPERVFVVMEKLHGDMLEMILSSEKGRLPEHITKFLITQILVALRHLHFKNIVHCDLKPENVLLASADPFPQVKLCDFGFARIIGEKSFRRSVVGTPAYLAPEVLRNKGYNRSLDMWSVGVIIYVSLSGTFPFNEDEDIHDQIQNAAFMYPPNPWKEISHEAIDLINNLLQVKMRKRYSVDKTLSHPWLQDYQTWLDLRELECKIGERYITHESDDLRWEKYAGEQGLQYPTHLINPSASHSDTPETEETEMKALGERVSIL

Another test deals with T9, RIOK2 (Homo sapiens, UniProt Q9BVS4).
T9 construct: purchased Eurofins DiscoverX KINOMEscan

Another test deals with T10, TRPM6 (Homo sapiens, UniProt Q9BX84).
T10 construct: purchased Eurofins DiscoverX KINOMEscan
T10 sequence (Q9BX84 whole entry): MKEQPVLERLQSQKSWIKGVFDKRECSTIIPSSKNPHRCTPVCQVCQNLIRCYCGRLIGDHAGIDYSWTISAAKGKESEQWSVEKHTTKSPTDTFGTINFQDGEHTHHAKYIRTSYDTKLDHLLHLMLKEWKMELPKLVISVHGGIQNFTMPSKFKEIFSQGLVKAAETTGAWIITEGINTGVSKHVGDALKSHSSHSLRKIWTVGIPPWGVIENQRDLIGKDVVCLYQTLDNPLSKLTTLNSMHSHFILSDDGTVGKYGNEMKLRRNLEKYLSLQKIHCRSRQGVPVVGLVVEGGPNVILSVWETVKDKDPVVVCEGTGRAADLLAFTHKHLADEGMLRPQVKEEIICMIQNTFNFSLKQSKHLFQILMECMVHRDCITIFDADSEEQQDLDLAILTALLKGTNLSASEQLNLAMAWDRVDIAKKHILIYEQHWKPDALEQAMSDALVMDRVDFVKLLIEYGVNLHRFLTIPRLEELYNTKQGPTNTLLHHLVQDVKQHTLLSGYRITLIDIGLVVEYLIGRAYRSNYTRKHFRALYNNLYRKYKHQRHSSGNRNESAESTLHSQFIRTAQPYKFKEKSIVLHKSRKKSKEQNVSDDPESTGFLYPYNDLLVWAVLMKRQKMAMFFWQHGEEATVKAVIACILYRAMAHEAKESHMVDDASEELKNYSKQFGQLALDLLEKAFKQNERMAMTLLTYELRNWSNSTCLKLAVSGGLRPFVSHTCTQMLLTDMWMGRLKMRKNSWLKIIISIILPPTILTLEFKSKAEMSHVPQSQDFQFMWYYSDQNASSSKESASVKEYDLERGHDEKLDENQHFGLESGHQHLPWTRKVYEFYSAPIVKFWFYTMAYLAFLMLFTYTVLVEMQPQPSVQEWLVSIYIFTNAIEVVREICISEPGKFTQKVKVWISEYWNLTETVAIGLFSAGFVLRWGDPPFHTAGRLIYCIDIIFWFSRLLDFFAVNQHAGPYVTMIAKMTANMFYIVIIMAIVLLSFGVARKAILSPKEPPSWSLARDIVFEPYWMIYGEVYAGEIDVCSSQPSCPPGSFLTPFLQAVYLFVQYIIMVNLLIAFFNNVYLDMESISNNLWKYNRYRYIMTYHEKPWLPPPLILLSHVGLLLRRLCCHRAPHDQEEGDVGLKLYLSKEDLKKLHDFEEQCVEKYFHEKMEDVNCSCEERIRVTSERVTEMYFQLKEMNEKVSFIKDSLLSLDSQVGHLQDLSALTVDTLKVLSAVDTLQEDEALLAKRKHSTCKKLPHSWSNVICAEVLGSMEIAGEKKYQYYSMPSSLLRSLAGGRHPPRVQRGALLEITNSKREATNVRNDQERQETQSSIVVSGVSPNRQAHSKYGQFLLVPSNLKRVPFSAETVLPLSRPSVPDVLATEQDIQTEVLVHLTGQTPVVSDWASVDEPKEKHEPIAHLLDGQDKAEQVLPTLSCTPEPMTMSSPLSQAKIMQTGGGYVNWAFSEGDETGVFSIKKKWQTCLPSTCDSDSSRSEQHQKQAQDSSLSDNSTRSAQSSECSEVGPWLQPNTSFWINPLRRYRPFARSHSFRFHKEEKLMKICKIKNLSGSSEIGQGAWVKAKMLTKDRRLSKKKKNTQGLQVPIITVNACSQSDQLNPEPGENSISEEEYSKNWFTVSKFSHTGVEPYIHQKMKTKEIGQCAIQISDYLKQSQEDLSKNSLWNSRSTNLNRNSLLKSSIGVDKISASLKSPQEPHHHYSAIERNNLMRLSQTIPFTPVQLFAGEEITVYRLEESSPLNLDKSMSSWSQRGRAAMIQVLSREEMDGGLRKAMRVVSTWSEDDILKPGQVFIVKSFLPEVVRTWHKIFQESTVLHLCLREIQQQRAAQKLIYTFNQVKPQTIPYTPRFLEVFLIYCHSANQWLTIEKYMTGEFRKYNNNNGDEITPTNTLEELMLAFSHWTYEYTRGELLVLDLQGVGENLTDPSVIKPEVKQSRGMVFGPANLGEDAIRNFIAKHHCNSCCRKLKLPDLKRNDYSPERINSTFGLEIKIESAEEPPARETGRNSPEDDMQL

T7 sequence (Q9H1R3 whole entry): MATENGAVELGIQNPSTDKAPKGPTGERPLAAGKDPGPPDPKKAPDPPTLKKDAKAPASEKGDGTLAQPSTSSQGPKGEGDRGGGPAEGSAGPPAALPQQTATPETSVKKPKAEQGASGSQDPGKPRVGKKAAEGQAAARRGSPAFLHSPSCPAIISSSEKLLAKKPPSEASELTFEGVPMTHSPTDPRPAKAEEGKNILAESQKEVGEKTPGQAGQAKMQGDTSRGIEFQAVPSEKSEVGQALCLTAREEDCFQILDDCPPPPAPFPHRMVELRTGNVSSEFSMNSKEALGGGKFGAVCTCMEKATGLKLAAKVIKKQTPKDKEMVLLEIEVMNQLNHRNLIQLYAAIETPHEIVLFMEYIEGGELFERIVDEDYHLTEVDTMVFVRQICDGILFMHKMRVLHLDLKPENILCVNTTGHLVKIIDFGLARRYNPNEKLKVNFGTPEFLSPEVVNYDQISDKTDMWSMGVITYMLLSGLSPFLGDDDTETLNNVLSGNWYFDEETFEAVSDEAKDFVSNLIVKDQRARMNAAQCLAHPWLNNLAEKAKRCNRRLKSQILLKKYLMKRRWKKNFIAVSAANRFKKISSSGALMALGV
T2 sequence (P31751 whole entry): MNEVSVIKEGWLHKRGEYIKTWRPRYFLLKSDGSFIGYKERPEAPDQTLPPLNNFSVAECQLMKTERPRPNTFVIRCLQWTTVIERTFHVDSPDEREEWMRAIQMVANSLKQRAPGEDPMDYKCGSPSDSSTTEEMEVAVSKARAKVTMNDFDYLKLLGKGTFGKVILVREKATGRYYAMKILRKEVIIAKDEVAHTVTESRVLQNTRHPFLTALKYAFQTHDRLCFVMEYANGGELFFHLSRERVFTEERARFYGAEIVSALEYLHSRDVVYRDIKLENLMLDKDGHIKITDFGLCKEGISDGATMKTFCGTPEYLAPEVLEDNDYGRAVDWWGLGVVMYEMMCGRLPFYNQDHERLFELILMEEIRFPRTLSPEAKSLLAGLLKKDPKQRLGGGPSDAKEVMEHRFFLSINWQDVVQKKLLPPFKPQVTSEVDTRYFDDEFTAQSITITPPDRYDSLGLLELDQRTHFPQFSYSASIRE
T9 sequence (Q9BVS4 whole entry): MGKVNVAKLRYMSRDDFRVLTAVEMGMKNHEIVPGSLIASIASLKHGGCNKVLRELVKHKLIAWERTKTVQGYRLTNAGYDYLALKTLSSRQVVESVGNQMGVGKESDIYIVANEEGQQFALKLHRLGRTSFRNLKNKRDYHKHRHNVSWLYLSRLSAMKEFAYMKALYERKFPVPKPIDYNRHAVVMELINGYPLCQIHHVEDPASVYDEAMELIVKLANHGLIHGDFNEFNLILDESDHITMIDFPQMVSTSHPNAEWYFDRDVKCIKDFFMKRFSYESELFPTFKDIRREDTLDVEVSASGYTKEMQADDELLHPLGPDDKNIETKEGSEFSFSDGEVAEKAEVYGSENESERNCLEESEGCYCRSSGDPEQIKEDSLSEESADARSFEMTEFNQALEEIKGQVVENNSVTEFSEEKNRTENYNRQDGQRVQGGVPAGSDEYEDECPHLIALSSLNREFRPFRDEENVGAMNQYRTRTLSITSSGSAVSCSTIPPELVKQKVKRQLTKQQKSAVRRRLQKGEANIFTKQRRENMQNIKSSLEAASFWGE
T4 sequence (P54764 20-986): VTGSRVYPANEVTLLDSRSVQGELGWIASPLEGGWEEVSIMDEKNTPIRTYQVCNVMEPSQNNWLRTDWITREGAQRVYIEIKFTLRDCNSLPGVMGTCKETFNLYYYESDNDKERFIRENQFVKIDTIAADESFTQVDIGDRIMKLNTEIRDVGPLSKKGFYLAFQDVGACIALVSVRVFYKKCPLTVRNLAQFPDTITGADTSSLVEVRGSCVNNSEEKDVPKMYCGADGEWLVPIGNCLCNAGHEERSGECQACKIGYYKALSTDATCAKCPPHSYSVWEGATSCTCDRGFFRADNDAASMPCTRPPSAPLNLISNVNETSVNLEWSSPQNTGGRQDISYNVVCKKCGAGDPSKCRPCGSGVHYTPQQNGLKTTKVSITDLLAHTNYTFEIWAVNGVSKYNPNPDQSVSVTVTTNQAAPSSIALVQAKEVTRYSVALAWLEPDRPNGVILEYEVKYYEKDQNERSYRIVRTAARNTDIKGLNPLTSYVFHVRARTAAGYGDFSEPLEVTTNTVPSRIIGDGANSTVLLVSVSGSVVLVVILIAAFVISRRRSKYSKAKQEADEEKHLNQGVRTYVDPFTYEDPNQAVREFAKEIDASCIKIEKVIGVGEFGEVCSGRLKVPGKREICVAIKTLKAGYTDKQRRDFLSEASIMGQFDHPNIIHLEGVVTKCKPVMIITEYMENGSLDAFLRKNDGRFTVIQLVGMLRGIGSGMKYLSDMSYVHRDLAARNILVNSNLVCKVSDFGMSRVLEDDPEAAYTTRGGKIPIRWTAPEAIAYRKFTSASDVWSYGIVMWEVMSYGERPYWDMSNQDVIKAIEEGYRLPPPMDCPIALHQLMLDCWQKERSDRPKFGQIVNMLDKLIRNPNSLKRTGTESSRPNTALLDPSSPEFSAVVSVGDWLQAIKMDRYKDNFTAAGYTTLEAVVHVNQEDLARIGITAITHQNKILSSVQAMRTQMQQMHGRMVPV

`Clc1cc(NCC2CC2)c2ncc(-c3ccc4[nH]ncc4c3)n2n1` [compound 2, 6-Chloro-N-(cyclopropylmethyl)-3-(1H-indazol-5-yl)imidazo[1,2-b]pyridazin-8-amine]: the remaining binding at 1 µM in test [1] worked out at 71%; at AKT2 it was 99%; on CAMK2B it was 90%; on EPHA4, 84%; at EPHB4, 79%; at MAPKAPK5, 91%. The remaining binding at 1 µM on MYLK2 worked out at 82%; on PRKD1, 100%; on RIOK2, 70%; on TRPM6, 100%.

Turning to `O=C(CN1CCOCC1)N[C@H]1CC[C@H](Nc2cc(Cl)nn3c(-c4ccc5[nH]ncc5c4)cnc23)CC1` [compound 26], the remaining binding at 1 µM in test [1] was determined as 55%; at AKT2 it was 99%; at CAMK2B, 69%; on EPHA4, 99%; at EPHB4 it was 95%; on MAPKAPK5, 98%. Further, the remaining binding at 1 µM on MYLK2 came to 52%; at PRKD1, 98%; at RIOK2, 67%; at TRPM6, 92%.

As for `CN1CCC(CNc2cc(Cl)nn3c(-c4cc5nc(Nc6ccccc6)[nH]c5cc4F)cnc23)CC1` [compound 31, 6-Chloro-3-(6-fluoro-2-(phenylamino)-1H-benzo[d]imidazol-5-yl)-N-((1-methylpiperidin-4-yl)methyl)imidazo[1,2-b]pyridazin-8-amine], the remaining binding at 1 µM in test [1] turned out to be 75%; at AKT2, 80%; at CAMK2B it was 100%; at EPHA4, 100%; on EPHB4, 100%; at MAPKAPK5 it was 82%. The remaining binding at 1 µM at MYLK2 was 89%; at PRKD1 it was 99%; at RIOK2, 61%; on TRPM6 it was 85%.
